# Tested on: guinea-pig papillary muscles
# Assay: Inhibition of ouabain-induced arrhythmias (aftercontractions) in guinea-pig papillary muscles
# Conditions: 10 μM concentration; guinea-pig papillary muscle paced at 1 Hz, 37° C.
# Experimental: The effects of the compounds of the invention were tested on ouabain-induced arrhythmias in guinea-pig papillary muscles.
# Guinea-pig papillary muscles were mounted into horizontal muscle cuvette. A hook connected to force transducer was attached to another end of the muscle. Muscle preparations were electrically paced at 1 Hz with field stimulation via platinum electrodes. Modified Tyrode solution was used for superfusion of muscle preparations. The composition of the Tyrode solution was the following (mM): NaCl 135, MgCl2×6H2O 1, KCl 5, CaCl2×2H2O 2, NaHCO3 15, Na2HPO4×2H2O 1, and glucose 10. The Tyrode solution was gassed with carbogen (95% O2, 5% CO2) to set pH at 7.4. Experiments were carried out at 37° C. Acquisition and analysis of twitch tensions with Action Potential and Force Measurement System (ACFO v1.0, Fision Ltd, Finland).
# Ouabain by blocking of sodium-potassium ATPase increases intracellular sodium which is changed for calcium via NCX. Increased intracellular calcium is leading to overload of sarcoplasmic reticulum (SR) and spontaneous calcium release from SR inducing delayed […] (DADs). Equivalence for DADs in force signal is aftercontractions (ACs) which are seen as spontaneous twitches after the pacing controlled twitch.
# The antiarrhythmic effects of the title compounds of Examples 13, 33, 14a and 14b were examined.
structure (smiles),measurement,value
"NCC(=O)Nc1ccc(Oc2ccc3c(c2)CCC(c2ccccc2)O3)nc1 (stereo not shown) [Example 33, 2-Amino-N-[6-(2-phenylchroman-6-yloxy)pyridin-3-yl]acetamide]",inhibition of the emergency of ouabain-induced second aftercontraction,inhibit completely

# Reference: patent publication US7482340B2, “Pyridine derivatives useful for inhibiting sodium/calcium exchange system” (Orion Corporation, priority 2003, dated 2009)
